Experimental data from PubChem BioAssay AID1259407 (Chemical Carcinogenesis Research Information System (CCRIS), 2018).
The source made the active and inactive calls. No rule for the calls is given here.

System: CCRIS mutagenicity, Ames/micronucleus/aberration tests
Assay: CCRIS mutagenicity studies

Measured: mutagenic call

Nc1ccc(-c2ccccc2)cc1
inactive: Test System: AMES SALMONELLA TYPHIMURIUM, Strain/Indicator: TA1535, Metabolic Activation: NONE, Method: STANDARD PLATE inactive; negative | Test System: AMES SALMONELLA TYPHIMURIUM, Strain/Indicator: TA1538, Metabolic Activation: HAMSTER, LIVER, INTACT HEPATOCYTES, Method: PREINCUBATION inactive; negative | Test System: AMES SALMONELLA TYPHIMURIUM, Strain/Indicator: YG1026, Metabolic Activation: TOBACCO TX1 CELLS, Method: PREINCUBATION inactive; negative | Test System: Ames Salmonella Typhimurium, Strain/Indicator: TA102, Metabolic Activation: None, Method: Preincubation inactive; negative | Test System: E. COLI, Strain/Indicator: WP2 UVRA(P), Metabolic Activation: NONE, Method: STANDARD PLATE inactive; negative | Test System: E. COLI, Strain/Indicator: WP2 UVRA, Metabolic Activation: NONE, Method: FLUCTUATION TEST inactive; negative
active: Test System: AMES SALMONELLA TYPHIMURIUM, Strain/Indicator: TA100, Metabolic Activation: TOBACCO CELL-FREE TXIMX, Method: PREINCUBATION active; positive | Test System: AMES SALMONELLA TYPHIMURIUM, Strain/Indicator: TA1537, Metabolic Activation: RAT, LIVER, S-9, AROCLOR 1254, Method: STANDARD PLATE active; positive | Test System: AMES SALMONELLA TYPHIMURIUM, Strain/Indicator: TA1538, Metabolic Activation: GUINEA PIG, LIVER, INTACT HEPATOCYTES, Method: PREINCUBATION active; positive | Test System: AMES SALMONELLA TYPHIMURIUM, Strain/Indicator: TA1538, Metabolic Activation: GUINEA PIG, LIVER, S-9, ACETYL COENZYME A, Method: PREINCUBATION active; positive | Test System: AMES SALMONELLA TYPHIMURIUM, Strain/Indicator: TA1538, Metabolic Activation: GUINEA PIG, LIVER, S-9, Method: PREINCUBATION active; positive | Test System: AMES SALMONELLA TYPHIMURIUM, Strain/Indicator: TA1538, Metabolic Activation: HAMSTER, LIVER, S-9, ACETYL COENZYME A, Method: PREINCUBATION active; positive | Test System: AMES SALMONELLA TYPHIMURIUM, Strain/Indicator: TA1538, Metabolic Activation: HAMSTER, LIVER, S-9, Method: PREINCUBATION active; positive | Test System: AMES SALMONELLA TYPHIMURIUM, Strain/Indicator: TA1538, Metabolic Activation: RAT, LIVER, INTACT HEPATOCYTES, Method: PREINCUBATION active; positive | Test System: AMES SALMONELLA TYPHIMURIUM, Strain/Indicator: TA1538, Metabolic Activation: RAT, LIVER, S-9, ACETYL COENZYME A, Method: PREINCUBATION active; positive | Test System: AMES SALMONELLA TYPHIMURIUM, Strain/Indicator: TA1538, Metabolic Activation: RAT, LIVER, S-9, AROCLOR 1254, Method: STANDARD PLATE active; positive | Test System: AMES SALMONELLA TYPHIMURIUM, Strain/Indicator: TA1538, Metabolic Activation: RAT, LIVER, S-9, KC500 OR PHENOBARBITAL, Method: LIQUID SUSPENSION active; positive | Test System: AMES SALMONELLA TYPHIMURIUM, Strain/Indicator: TA1538, Metabolic Activation: RAT, LIVER, S-9, PHENOBARBITAL, Method: STANDARD PLATE active; positive | Test System: AMES SALMONELLA TYPHIMURIUM, Strain/Indicator: TA1538, Metabolic Activation: RAT, LIVER, S-9, Method: PREINCUBATION active; positive | Test System: AMES SALMONELLA TYPHIMURIUM, Strain/Indicator: YG1021, Metabolic Activation: TOBACCO CELL-FREE TXIMX, Method: PREINCUBATION active; positive | Test System: AMES SALMONELLA TYPHIMURIUM, Strain/Indicator: YG1021, Metabolic Activation: TOBACCO TX1 CELLS, Method: PREINCUBATION active; positive | Test System: AMES SALMONELLA TYPHIMURIUM, Strain/Indicator: YG1024, Metabolic Activation: HUMAN, UROEPITHELIAL CELL, MICROSOMES, Method: PREINCUBATION active; positive | Test System: AMES SALMONELLA TYPHIMURIUM, Strain/Indicator: YG1024, Metabolic Activation: PLANT CELLS, Method: PREINCUBATION active; positive | Test System: AMES SALMONELLA TYPHIMURIUM, Strain/Indicator: YG1024, Metabolic Activation: TOBACCO CELL-FREE EXTRACT, Method: PREINCUBATION active; positive | Test System: AMES SALMONELLA TYPHIMURIUM, Strain/Indicator: YG1024, Metabolic Activation: TOBACCO CELL-FREE TXIMX, Method: PREINCUBATION active; positive | Test System: AMES SALMONELLA TYPHIMURIUM, Strain/Indicator: YG1024, Metabolic Activation: TOBACCO TX1 CELLS, Method: PREINCUBATION active; positive | Test System: AMES SALMONELLA TYPHIMURIUM, Strain/Indicator: YG1026, Metabolic Activation: TOBACCO CELL-FREE TXIMX, Method: PREINCUBATION active; positive | Test System: AMES SALMONELLA TYPHIMURIUM, Strain/Indicator: YG1029, Metabolic Activation: MOUSE LIVER S-9, AROCLOR 1254, 10%, Method: PREINCUBATION active; positive | Test System: AMES SALMONELLA TYPHIMURIUM, Strain/Indicator: YG1029, Metabolic Activation: RAT LIVER S-9, AROCLOR 1254, 10%, Method: PREINCUBATION active; positive | Test System: AMES SALMONELLA TYPHIMURIUM, Strain/Indicator: YG1029, Metabolic Activation: TOBACCO CELL-FREE EXTRACT, Method: PREINCUBATION active; positive | Test System: AMES SALMONELLA TYPHIMURIUM, Strain/Indicator: YG1029, Metabolic Activation: TOBACCO CELL-FREE TXIMX, Method: PREINCUBATION active; positive | Test System: AMES SALMONELLA TYPHIMURIUM, Strain/Indicator: YG1029, Metabolic Activation: TOBACCO TX1 CELLS, Method: PREINCUBATION active; positive | Test System: Ames Salmonella typhimurium, Strain/Indicator: TA102, Metabolic Activation: Rat, liver, S-9, Aroclor 1254, 4%, Method: Preincubation active; positive | Test System: CHINESE HAMSTER OVARY, Strain/Indicator: CHO-K1-BH4 (HGPRT), Metabolic Activation: RAT, LIVER, S-9, AROCLOR, Method: SUSPENSION/PLATE active; positive | Test System: UDS RODENT HEPATOCYTES, Strain/Indicator: THY INCORP (NON-S-PHASE), Method: AUTORADIOGRAPHY active; positive
